Laboratory results taken from publication PMC11864979, “First-in-class ultralong-target-residence-time p38α inhibitors as a mitosis-targeted therapy for colorectal cancer” (Nature Cancer, 2025).
Several values for one entry are separate records, joined by “and”; a condition that tells them apart may be missing. Equal entries are not always repeated.

Experiments:
[1] = test system: PDO13; test: cell viability in patient-derived CRC organoids PDO13; assay type: cell-based, human; conditions: PDO13, 1 µM, 4 days; 1 µM
Procedure: (§1) For in vitro treatment studies, organoids were mechanically dissociated and digested using TrypLE supplemented with 100 µg ml^−1 DNaseI and 10.5 µM Y-27632 dihydrochloride (Invitrogen) at 37 °C. A total of 1,000–2,000 single cells were plated per well in white 96-well plates (Greiner) in culture medium containing 10% GFR Matrigel or Cultrex BME. The treatment with doxycycline (5 µg ml^−1), pharmacological inhibitors or corresponding volumes of DMSO was started 24 h after plating. Doxycycline was obtained from Sigma-Aldrich. […] Cell viability was measured by means of CellTiter-Glo 3D or CellTiter-Glo 2.0 reagent (Promega) according to the manufacturers’ instructions and the Infinite M Plex reader (Tecan, i-control version 3.9.1 software). Results were normalized to vehicle (DMSO) or to shNC. For cell-doubling assays, the cell number was quantified at the corresponding time points using Guava EasyCyte flow cytometer (Luminex, CytoSoft v5.2 software).

[2] = test system: PDO8; test: cell viability in patient-derived CRC organoids PDO8; assay type: cell-based, human
Procedure: as §1

[3] = test system: HCT 116; test: cell viability in human CRC cell line HCT 116; assay type: cell-based; conditions: for HCT 116 Cell viability (%): 4 d
Procedure: To generate KAP^2D cells, KAP organoids were isolated from Matrigel, fragmented by mechanical dissociation and plated without any extracellular matrix on common cell culture dishes. Phoenix-Eco packaging cells (CRL-3214), HCT-15 (CCL-225), HCT 116 (CCL-247), COLO 205 (CCL-222), LS 174T (CL-188), RKO (CRL-2577) and HT-29 (HTB-38) were obtained from the American Type Culture Collection. The cells were cultured at 37 °C and 7% CO2 with RPMI (KAP^2D cells) or DMEM (other cell lines), supplemented with 10% FBS and penicillin–streptomycin. KAP^2D cells were authenticated using PCR (Kras locus and Trp53 locus). Phoenix-Eco packaging cells and HCT-15, HCT 116, COLO 205, LS 174T, RKO and HT-29 cells were authenticated by the provider using short tandem repeat profiling. No commonly misidentified cell lines were used. Mycoplasma contamination was excluded by a PCR-based analysis.
as §1

[4] = test system: KAP^2D cells; test: EdU incorporation in KAP^2D cells; assay type: cell-based, mouse; conditions: replicates, experiment and repetition
Procedure: Immunofluorescence staining on cells and organoids was performed on glass coverslips or tissue culture chambers (Sarstedt). Organoids were plated in medium containing 10% Matrigel or Cultrex BME. The cultures were fixed with 4% paraformaldehyde and stained with specific antibodies and DAPI (Vector Labs). All used antibodies and dilutions are listed in the Nature Portfolio Reporting Summary. For analyzing DNA synthesis, the Molecular Probes Click-iT EdU Alexa Fluor 555 kit was used 24 h after EdU incorporation with DAPI counterstaining. SA-β-Gal staining of cells was performed in cell culture dishes (cells) or tissue culture chambers (organoids) after fixation with 0.5% glutaraldehyde as described above. Human cultures were incubated with X-Gal solution at pH 6.0 for ~4 h.

[5] = test system: KAP liver metastasis; test: survival of wild-type mice with KAP liver metastasis; assay type: in vivo, mouse; conditions: single animals; 1 = event, 0 = censored; Fig. 6e
Procedure: Subcutaneous injection, splenic seeding or cecum injection of organoids was performed in 8–10-week-old C57BL/6 N/Crl, Rag2^−/− (B6.Cg-Rag2^tm1.1Cgn/J), or CB17 Scid beige (CB17.Cg-Prkdc^scidLyst^bg-J/Crl) mice, obtained from Charles River. The organoids were dissociated into single cells, washed with PBS and injected in a 1:1 mixture of PBS and Matrigel. For murine organoids, 1 × 10^5 cells were injected into the left and right flanks or the spleen capsule and 2 × 10^6 cells were injected into the cecum wall. For human organoids, 4 × 10^5 cells were injected into the flanks of CB17 Scid beige mice. For splenic seeding and cecum injection, mice were anaesthetized using ketamine (100 mg kg^−1, intraperitoneally) and xylazin (10 mg/kg, intraperitoneally) in NaCl and a small laparotomy below the thorax was performed.
No mice were excluded during treatment studies.

[6] = test system: PDO9; test: cell viability in patient-derived CRC organoids PDO9; assay type: cell-based, human
Procedure: as §1

[7] = test system: KAP^2D cells; test: annexin V apoptosis analysis in KAP^2D cells; assay type: cell-based, mouse; conditions: Fig. 5a
Procedure: Apoptosis was analyzed with the FITC annexin V apoptosis detection kit (Biolegend). Both measurements were performed with FACS Canto II (BD) and physical parameters were used to exclude cell debris and cell doublets.

[8] = test system: PDO7; test: cell viability in patient-derived CRC organoids PDO7; assay type: cell-based, human
Procedure: as §1

[9] = test system: KAP^2D cells; test: quantification of viable KAP^2D cells over time (cell-doubling assay); assay type: cell-based, mouse; conditions: Fig. 4i
Procedure: The treatment with doxycycline (5 µg ml^−1), pharmacological inhibitors or corresponding volumes of DMSO was started 24 h after plating. […] Cell viability was measured by means of CellTiter-Glo 3D or CellTiter-Glo 2.0 reagent (Promega) according to the manufacturers’ instructions and the Infinite M Plex reader (Tecan, i-control version 3.9.1 software). Results were normalized to vehicle (DMSO) or to shNC. For cell-doubling assays, the cell number was quantified at the corresponding time points using Guava EasyCyte flow cytometer (Luminex, CytoSoft v5.2 software).

Q: For O=C1c2ccc(Nc3ccc(F)cc3F)cc2CCc2ccc(OC[C@H](O)CO)cc21 [SKL, skepinone-L, reference compound], which “Cell viability (%)” value [1] is on record?
A: 87.89% and 85.59%

Q: And the “Cell viability (%)” value ([2]; PDO8, 0.5 µM, 4 d, 0.5 µM)?
A: 95.66% and 98.53% and 69.31%

Q: And the “Cell viability (%)” value ([2]; PDO8, 1 µM, 4 days, 1 µM)?
A: 101.75% and 85.55% and 77.65%

Q: And the “HCT 116 Cell viability (%)” value ([3]; 0.0137 µM)?
A: 82.53% and 93.66% and 88.98% and 84.63%

Q: And the “HCT 116 Cell viability (%)” value ([3]; 0.0412 µM)?
A: 87.30% and 84.90% and 78.78% and 77.22% and 83.29%

Q: What about the “HCT 116 Cell viability (%)” value ([3]; 0.1235 µM) of the same compound?
A: 92.74% and 88.80% and 81.62% and 82.67% and 87.37%

Q: And the “HCT 116 Cell viability (%)” value ([3]; 0.3704 µM)?
A: 94.27% and 95.66% and 82.63% and 82.17%

Q: And the “HCT 116 Cell viability (%)” value ([3]; 1.1111 µM)?
A: 100.75% and 99.43% and 96.05% and 80.80% and 79.61% and 91.28%

Q: What about the “HCT 116 Cell viability (%)” value ([3]; 3.3333 µM) of the same compound?
A: 95.32% and 96.31% and 81.21% and 79.37% and 87.78%

Q: What about the “HCT 116 Cell viability (%)” value ([3]; 10.0000 µM) of the same compound?
A: 90.67% and 87.54% and 88.22% and 75.98% and 77.27% and 105.12%

Q: And the viability at 0.0137 µM ([3]; Homo sapiens, HCT-116, 96 h, read-out: HCT 116 Cell viability (%), 0.0137 µM, 4 d)?
A: 85.5%

Q: What about the viability at 0.0412 µM ([3]; Homo sapiens, HCT-116, 96 h, read-out: HCT 116 Cell viability (%), 0.0412 µM, 4 d) of the same compound?
A: 90.7%

Q: What about the viability at 0.1235 µM ([3]; Homo sapiens, HCT-116, 96 h, read-out: HCT 116 Cell viability (%), 0.1235 µM, 4 d) of the same compound?
A: 93.8%

Q: What about the viability at 0.3704 µM ([3]; Homo sapiens, HCT-116, 96 h, read-out: HCT 116 Cell viability (%), 0.3704 µM, 4 d) of the same compound?
A: 94.8%

Q: What about the viability at 3.3333 µM ([3]; Homo sapiens, HCT-116, 96 h, read-out: HCT 116 Cell viability (%), 3.3333 µM, 4 d) of the same compound?
A: 96.3%

Q: What about the “EdU+ cells” value ([4]; Fig. 4j) of the same compound?
A: 82.79% and 86.90% and 76.55% and 79.03% and 85.67% and 83.92% and 75.07% and 81.04%

Q: What about the “EdU+ cells” value ([4]; Fig. 5b) of the same compound?
A: 71.09% and 73.09% and 75.56% and 76.21% and 80.69% and 80.64% and 67.57% and 64.28%

Q: What about the Survival [5] of the same compound?
A: 15 d of treatment and 16 d of treatment and 18 d of treatment and 26 d of treatment and 28 d of treatment and 11 d of treatment

Q: What about the viability at 0.5 µM ([6]; Homo sapiens, 96 h, read-out: Cell viability (%), PDO9, 0.5 µM, 4 d) of the same compound?
A: 92%

Q: What about the “Cell viability (%)” value ([6]; PDO9, 0.5 µM, 4 d, 0.5 µM) of the same compound?
A: 97.83% and 101.86%

Q: And the “Cell viability (%)” value ([6]; PDO9, 1 µM, 4 days, 1 µM)?
A: 97.80% and 79.73% and 102.56%

Q: What about the “Annexin V+ cells” value ([7]; 1 d of treatment) of the same compound?
A: 5.21% and 5.26% and 4.63% and 7.96% and 7.76% and 8.93%

Q: And the “Annexin V+ cells” value ([7]; 2 d of treatment)?
A: 9.26% and 10.60% and 6.13% and 6.98% and 6.69% and 8.97%

Q: What about the “Annexin V+ cells” value ([7]; 3 d of treatment) of the same compound?
A: 12.30% and 9.65% and 9.21% and 7.99% and 8.10%

Q: And the “Annexin V+ cells” value ([7]; 4 d of treatment)?
A: 14.90% and 13.30% and 12.30% and 11.90% and 13.00% and 16.60%

Q: And the viability at 0.5 µM ([8]; Homo sapiens, 96 h, read-out: Cell viability (%), PDO7, 0.5 µM, 4 d)?
A: 82.8%

Q: And the viability at 1 µM ([8]; Homo sapiens, 96 h, read-out: Cell viability (%), PDO7, 1 µM, 4 days)?
A: 96.8%

Q: What about the “Cell viability (%)” value ([8]; PDO7, 0.5 µM, 4 d, 0.5 µM) of the same compound?
A: 101.04% and 90.15%

Q: And the “Cell viability (%)” value ([8]; PDO7, 1 µM, 4 days, 1 µM)?
A: 99.67% and 101.17%

Q: What about the Number of cells ([9]; 0 h of treatment) of the same compound?
A: 41307.05 and 44263.95 and 43595.63 and 48502.24 and 40389.64

Q: And the Number of cells ([9]; 12 h of treatment)?
A: 65088.74 and 77948.45 and 80933.57 and 91775.55 and 95176.94 and 93698.43

Q: And the Number of cells ([9]; 24 h of treatment)?
A: 83699.30 and 94240.25 and 95144.88 and 126855.10 and 130387.80 and 122006.30

Q: What about the Number of cells ([9]; 36 h of treatment) of the same compound?
A: 151900.95 and 118999.57 and 148091.83 and 233974.50 and 200549.50 and 179469.60

Q: What about the Number of cells ([9]; 48 h of treatment) of the same compound?
A: 325693.88 and 295126.41 and 320338.47 and 303856.40 and 287208.10 and 301764.60

Q: What about the Number of cells ([9]; 60 h of treatment) of the same compound?
A: 579787.04 and 516216.51 and 567999.66 and 537469.80 and 457898.40 and 474698.40
